Source: patent publication US6395772B1, “Method for blocking endothelial cell-leukocyte attachment by inhibiting expression of adhesion molecules on the vascular endothelium for therapeutic applications” (National Institute of Immunology, priority 1996, dated 2002)
Entries after “also recorded” stand apart in the source; their conditions may differ.

Experiments:
[1] = system: B cells, T cells; conditions: cited from earlier work
[2] = system: TNF sensitive mouse fibroblast L-929 cell line; assay: TNF-α mediated cytotoxicity on TNF-sensitive L-929 fibroblast cell line (MTT assay); type: cell-based
Method: FIG. 7: Effect of berberine on TNF-α mediated cytotoxicity on TNF sensitive mouse fibroblast L-929 cell line.
Effect of Berberine on TNF-α mediated cytotoxicity was evaluated using TNF-sensitive L-929 fibroblast cell line. L-929 cells were plated at a concentration of 5×10^4 cells/well in a 96-well flat bottom plate in a volume of 100 μl. The cells were incubated at 37° C. for 16-18 hrs. Different concentrations of TNF-α, with and without different doses of berberine, were added to the cultures. The cells were then incubated for additional 15 hrs and cytotoxity was measured by MTT assay.

[3] = system: attachment of neutrophils to endothelial lining of the glomerular capillaries; assay: Neutrophil attachment to endothelial lining in kidney of endotoxin-challenged mice (electron microscopy); type: in vivo, BALB/C mice
Method: FIG. 1: Electron micrograph of kidney from a mouse challenged with endotoxin (LPS: 500 ug)) showing attachment of neutrophils with endothelial cells of glomerular capillary. Degenerative changes in surrounding tissue are shown.
FIG. 2: Electron micrograph of kidney from a mouse treated with a dose of berberine of 10 mg/kg followed 24 hours later by endotoxin (LPS 500 ug).
BALB/C mice were treated with berberine (1, 5, 10 or 20 ug/kg body weight) intraperitoneally and challenged 24 hours later with lethal dose of endotoxin. Kidneys were removed after 3, 6 and 12 hours after endotoxin challenge and the tissue samples was fixed and processed for electron microscopy.

[4] = system: ICAM-1; assay: ICAM-1 expression on vascular endothelium of LPS-challenged mice (immunocytochemical localization); type: in vivo, BALB/C mice; conditions: berberine intraperitoneally 24 hours before 500 ug LPS; sacrificed 6 hours after LPS
Method: FIG. 3: Photomicrograph of liver from mice challenged with endotoxin (LPS 500 ug). […] (Immunocytochemical localization using anti-ICAM-1 antibody on frozen tissue).
FIG. 4: Photomicrograph of liver from mice treated with berberine (10 ug/kg) followed 24 hours later by endotoxin (LPS 500 ug). […] (Immunocytochemical localization using anti-ICAM-1 antibody frozen tissue).
BALB/C mice were treated with berberine (1, 5, 10 or 20 ug/kg body weight) intraperitoneally and challenged 24 hours later with 500 ug of endotoxin (lipopolysaccharide: LPS); controls without berberine treatment were also given LPS challenge. Animals were sacrificed 6 hours after the LPS challenge and various organs (liver, kidney, lungs) were removed and immediately frozen in liquid nitrogen. Frozen section of these organs were subjected to immunocytochemical localization for ICAM 1 antibodies.

[5] = system: ICAM-1 on endothelial cell line (send. 1); assay: TNF-α induced ICAM-1 expression on endothelial cell line (send. 1), flowcytometric analysis; type: cell-based
Excerpt: FIG. 5: Effect of berberine pretreatment on expression of TNF-α induced ICAM-1 expression on endothelial cell line (send. 1), in vitro. […] (Flowcytometric analysis using anti-ICAM 1 antibody—FITC conjugate). The black line represents background level of ICAM expression, the red line represents induced level of ICAM following TNF stimulation and the green line represents TNF-α induced ICAM-1 expression after treatment for different duration.
FIG. 6: Effect of berberine pretreatment (dose response) on expression of TNF-α induced ICAM-1 expression on endothelial cell line (send. 1), in vitro. […] (Flowcytometric analysis using anti-ICAM 1 antibody—FITC conjugate). The black line represents background level of ICAM-1 expression, the red line represents induced level of ICAM following TNF stimulation and the green line represents the TNF-α induced ICAM induced ICAM expression after treatment with different doses of berberine.
Shifting of this curve to the left indicates the lower amount of expression of ICAM-1.
Effect of berberine for various duration ranging from 1, 6, 12 and 24 hours on the expression of ICAM-1 on the endothelial cell line (send. 1) in response to a combination of recombinant TNF-α and IFN-γ was analyzed using flowcytometer after staining with FITC labeled anti-CD 54 (ICAM-1) antibody.

COc1ccc2cc3[n+](cc2c1OC)CCc1cc2c(cc1-3)OCO2 [berberine]
antibody production by B cells [1]: inhibits antibody production by B cells
propagation of T cells [1]: no effect on propagation of T cells
TNF mediated cytotoxity ([2]; berberine 100 μg/ml, TNF 100 pg/ml alone showed 66% cytotoxity, 15 hrs incubation): 27%
protection against TNF mediated killing ([2]; different doses of berberine with TNF-α, 15 hrs): dose dependent inhibition of cytotoxic effect; also recorded: dose dependent protection
glomerular morphology / surrounding tissue ([3]; berberine dose of 10-20 mg/kg, endotoxin challenge 24 hours later): surrounding tissue appears normal; also recorded: glomerular morphology was normal
attachment of neutrophils to endothelial lining of glomerular capillaries ([3]; berberine intraperitoneally 24 hours before lethal endotoxin (LPS 500 ug), kidneys 3, 6 and 12 hours after challenge): appear free without attachment to endothelial lining; also recorded: remarkably inhibited the attachment of neutrophils to endothelial lining of the glomerular capillaries
expression of ICAM-1 on vascular endothelium (liver, kidney, lungs) [4]: lack of expression of ICAM-1 on vascular endothelium; also recorded: inhibited expression of ICAM 1 on the endothelial lining of all organs
maximum inhibition of ICAM-1 expression ([5]; 24 hours of treatment at 100 μg/ml): 24 hour pretreatment shows the maximum inhibition of ICAM-1 expression and Treatment with 100 ug/ml berberine shows the maximum inhibition of ICAM-1 expression and maximum inhibition was seen at 24 hours of treatment at 100 μg/ml
dose dependence of inhibition of ICAM-1 expression ([5]; dose response, FIG. 6): dose dependent
inhibition of ICAM-1 expression on endothelial cells ([5]; recombinant TNF-α and IFN-γ stimulation, as early as 6 hours of treatment): inhibited the expression of ICAM-1 on endothelial cells
